{
  "source": "patent US6861428B2",
  "about": "“Water-soluble phenylpyridazine compounds and compositions containing the same” (Kowa Co., Ltd., priority 2001, dated 2005)",
  "key": {"[1]": {"system": "interleukin-1β production", "experiment": "Inhibitory activity against interleukin-1β production (LPS-stimulated HL-60 cells, ELISA)", "format": "cell-based", "conditions": "lipopolysaccharide 10 μg/mL, 3 days, Table 1, read-out: IL-1β production inhibiting activity IC50", "procedure": "Inhibitory Activity Against Interleukin-1β Production\nHL-60 cells were cultured for 4 days until confluence on RPMI 1640 medium with 10% fetal bovine serum (FBS) added thereto. The medium was centrifuged. The supernatant was discarded, and the cells were then suspended at 1×10^6 cells/mL on RPMI 1640 medium with 3% FBS, and lipopolysaccharide was added to give a final concentration of 10 μg/mL. The culture was inoculated at 1 mL/well to a 24-well plate. A sample compound was added at 1 μL/well, followed by culturing for 3 days. Three days later, the amount of interleukin-1β in each culture was determined by ELISA. Each IC50 value was determined by a comparison in yield with a control to which no test sample was added."}, "[2]": {"experiment": "Oral absorbability test on rats and/or mice", "format": "in vivo", "conditions": "orally administered to mice and/or rats, as in Experiment 3, FIGS. 2 to 6", "procedure": "(§1) The compound of Example 83 and the comparative compound 3 were suspended at 2 mg/mL with a 0.5% MC solution in mortars, respectively, and were orally administered to male SD rats at 10 mg/5 mL/kg. Upon elapsed time of 0.25, 0.5, 1, 2, 4, 6 and 8 hours after the administration, blood samples were collected and then centrifuged to provide plasma samples. The plasma levels of the respective compounds were determined by HPLC. […] The compound of Example 83 is, therefore, useful as an orally dosable medicine.\nIn a similar manner as in Experiment 3, test compounds of Examples 23, 25, 143, 193, 245, 246, 247, 248 and 249 were orally administered to mice and/or rats to test their oral absorbability."}, "[3]": {"experiment": "Water solubility test", "format": "physicochemical", "conditions": "for Solubility (%): purified water, from amount of water required for dissolution", "procedure": "Each sample compound was weighed in the amount shown in Table 3, to which purified water was added in 0.05 mL aliquots. The solubility (%) of the compound was determined based on the amount of water required for its dissolution."}, "[4]": {"experiment": "Oral absorbability test on rats", "format": "in vivo", "conditions": "male SD rats, oral 10 mg/5 mL/kg, suspension in 0.5% MC, 0.25-8 hours, FIG. 1", "procedure": "as §1"}},
  "note": "Like-named read-outs stand apart in the source and are kept apart here.",
  "data": [
    {"molecule": "COc1ccc(-c2cc(CN(CCO)CCO)c(=O)n(CC3CC3)n2)cc1F.Cl", "note": "[Example 23, 4-N,N-bis(2-hydroxyethyl)aminomethyl-2-cyclopropylmethyl-6-(3-fluoro-4-methoxyphenyl)-2H-pyridazin-3-one hydrochloride]", "values": [
      {"measurement": "IC50", "setting": "[1]", "value": 12.3, "unit": "µM"},
      {"measurement": "Oral absorbability", "setting": "[2]", "value": "good absorbability"},
      {"measurement": "Solubility (%)", "setting": "[3]", "value": 10, "unit": "%"}
    ]},
    {"molecule": "COc1ccc(-c2cc(CN)c(=O)n(CC3CC3)n2)cc1F.Cl", "note": "[Example 25, 4-aminomethyl-2-cyclopropylmethyl-6-(3-fluoro-4-methoxyphenyl)-2H-pyridazin-3-one hydrochloride]", "values": [
      {"measurement": "IC50", "setting": "[1]; Homo sapiens, 72 h", "value": 2.74, "unit": "µM"},
      {"measurement": "Oral absorbability", "setting": "[2]", "value": "good absorbability"},
      {"measurement": "Solubility (%)", "setting": "[3]", "value": 0.4, "unit": "%"}
    ]},
    {"molecule": "Cc1ccc(-c2cc(CN(C)C)c(=O)n(CC(C)C)n2)cc1.Cl", "note": "[Example 45, 4-dimethylaminomethyl-2-isobutyl-6-(4-methylphenyl)-2H-pyridazin-3-one hydrochloride]", "values": [
      {"measurement": "IC50", "setting": "[1]; Homo sapiens, 72 h", "value": 6.21, "unit": "µM"},
      {"measurement": "Solubility (%)", "setting": "[3]", "value": 4, "unit": "%"}
    ]},
    {"molecule": "CCN(CC)Cc1cc(-c2ccc(C)cc2)nn(CC(C)C)c1=O.Cl", "note": "[Example 47, 4-diethylaminomethyl-2-isobutyl-6-(4-methylphenyl)-2H-pyridazin-3-one hydrochloride]", "values": [
      {"measurement": "IC50", "setting": "[1]; Homo sapiens, 72 h", "value": 5.2, "unit": "µM"},
      {"measurement": "Solubility (%)", "setting": "[3]", "value": ">20", "unit": "%"}
    ]},
    {"molecule": "Cc1cc(-c2cc(CN3CCN(C)CC3)c(=O)n(CC(C)C)n2)ccc1F.Cl.Cl", "note": "[Example 83, 6-(4-fluoro-3-methylphenyl)-2-isobutyl-4-(4-methyl-1-piperazinyl)methyl-2H-pyridazin-3-one dihydrochloride]", "values": [
      {"measurement": "IC50", "setting": "[1]; Homo sapiens, 72 h", "value": 0.27, "unit": "µM"},
      {"measurement": "Oral absorption (plasma level by HPLC)", "setting": "[4]", "value": "good absorption"}
    ]},
    {"molecule": "Cc1cc(-c2cc(CN(C)C)c(=O)n(CC(C)C)n2)ccc1F.Cl", "note": "[Example 89, 4-dimethylaminomethyl-6-(4-fluoro-3-methylphenyl)-2-isobutyl-2H-pyridazin-3-one hydrochloride]", "values": [
      {"measurement": "IC50", "setting": "[1]; Homo sapiens, 72 h", "value": 5.5, "unit": "µM"},
      {"measurement": "Solubility (%)", "setting": "[3]", "value": ">20", "unit": "%"}
    ]},
    {"molecule": "CC(C)Cn1nc(-c2ccc(F)c(F)c2)cc(CN(CCO)CCO)c1=O.Cl", "note": "[Example 108, 4-N,N-bis(2-hydroxyethyl)aminomethyl-6-(3,4-difluorophenyl)-2-isobutyl-2H-pyridazin-3-one hydrochloride]", "values": [
      {"measurement": "IC50", "setting": "[1]", "value": 3.44, "unit": "µM"},
      {"measurement": "Solubility (%)", "setting": "[3]", "value": ">20", "unit": "%"}
    ]},
    {"molecule": "Cc1cc(-c2cc(CN3CCN(C)CC3)c(=O)n(CC=Cc3ccc(Cl)cc3)n2)ccc1F.Cl.Cl", "note": "[Example 143, 2-(4-chlorocinnamyl)-6-(4-fluoro-3-methylphenyl)-4-(4-methyl-1-piperazinyl)methyl-2H-pyridazin-3-one dihydrochloride]", "values": [
      {"measurement": "IC50", "setting": "[1]; Homo sapiens, 72 h", "value": 8.55, "unit": "µM"},
      {"measurement": "Oral absorbability", "setting": "[2]", "value": "good absorbability"},
      {"measurement": "Solubility (%)", "setting": "[3]", "value": 10, "unit": "%"},
      {"measurement": "melting point", "value": "229.7 to 243.3 °C (dec.)"}
    ]},
    {"molecule": "CSc1ccc(-c2cc(CN3CCN(C)CC3)c(=O)n(CC3CC3)n2)cc1.Cl.Cl", "note": "[Example 149, 2-cyclopropylmethyl-4-(4-methyl-1-piperazinyl)methyl-6-[4-(methylthio)phenyl]-2H-pyridazin-3-one dihydrochloride]", "values": [
      {"measurement": "IC50", "setting": "[1]; Homo sapiens, 72 h", "value": 1.63, "unit": "µM"},
      {"measurement": "Solubility (%)", "setting": "[3]", "value": ">10", "unit": "%"},
      {"measurement": "melting point", "value": "234.6 to 239.2", "unit": "°C"}
    ]},
    {"molecule": "COc1ccc(-c2cc(CN3CCNCC3)c(=O)n(Cc3ccc(F)cc3)n2)cc1F.Cl.Cl", "note": "[Example 193, 2-(4-fluorobenzyl)-6-(3-fluoro-4-methoxyphenyl)-4-(1-piperazinyl)methyl-2H-pyridazin-3-one dihydrochloride]", "values": [
      {"measurement": "Oral absorbability", "setting": "[2]", "value": "good absorbability"},
      {"measurement": "Solubility (%)", "setting": "[3]", "value": 5, "unit": "%"}
    ]},
    {"molecule": "COc1ccc(-c2cc(CN3CCN(C)CC3)c(=O)n(Cc3ccc(F)c(F)c3)n2)cc1F.Cl.Cl", "note": "[Example 245, 2-(3,4-difluorobenzyl)-6-(3-fluoro-4-methoxyphenyl)-4-(4-methyl-1-piperazinyl)methyl-2H-pyridazin-3-one dihydrochloride]", "values": [
      {"measurement": "Oral absorbability", "setting": "[2]", "value": "good absorbability"},
      {"measurement": "Solubility (%)", "setting": "[3]", "value": 10, "unit": "%"}
    ]},
    {"molecule": "COc1ccc(-c2cc(CN(C)C)c(=O)n(Cc3ccc(F)c(F)c3)n2)cc1F.Cl", "note": "[Example 246, 2-(3,4-difluorobenzyl)-4-dimethylaminomethyl-6-(3-fluoro-4-methoxyphenyl)-2H-pyridazin-3-one hydrochloride]", "values": [
      {"measurement": "Oral absorbability", "setting": "[2]", "value": "good absorbability"},
      {"measurement": "Solubility (%)", "setting": "[3]", "value": 2, "unit": "%"}
    ]},
    {"molecule": "Cc1cc(-c2cc(CN3CCN(C)CC3)c(=O)n(CCCc3ccc(Cl)cc3)n2)ccc1F.Cl.Cl", "note": "[Example 247, 2-[3-(4-chlorophenyl)propyl]-6-(4-fluoro-3-methylphenyl)-4-(4-methyl-1-piperazinyl)methyl-2H-pyridazin-3-one dihydrochloride]", "values": [
      {"measurement": "Oral absorbability", "setting": "[2]", "value": "good absorbability"},
      {"measurement": "Solubility (%)", "setting": "[3]", "value": 10, "unit": "%"}
    ]},
    {"molecule": "COc1ccc(-c2cc(CN3CCN(C)CC3)c(=O)n(CC=Cc3ccc(Cl)cc3)n2)cc1F.Cl.Cl", "note": "[Example 248, 2-(4-chlorocinnamyl)-6-(3-fluoro-4-methoxyphenyl)-4-(4-methyl-1-piperazinyl)methyl-2H-pyridazin-3-one dihydrochloride]", "values": [
      {"measurement": "Oral absorbability", "setting": "[2]", "value": "good absorbability"},
      {"measurement": "Solubility (%)", "setting": "[3]", "value": 0.06, "unit": "%"}
    ]},
    {"molecule": "COc1ccc(-c2cc(CN3CCN(CCO)CC3)c(=O)n(CC=Cc3ccc(Cl)cc3)n2)cc1F.Cl.Cl", "note": "[Example 249, 2-(4-chlorocinnamyl)-6-(3-fluoro-4-methoxyphenyl)-4-[4-(2-hydroxyethyl)-1-piperazinyl]methyl-2H-pyridazin-3-one dihydrochloride]", "values": [
      {"measurement": "Oral absorbability", "setting": "[2]", "value": "good absorbability"},
      {"measurement": "Solubility (%)", "setting": "[3]", "value": 0.03, "unit": "%"}
    ]},
    {"molecule": "CNC(=O)c1cc(-c2ccc(OC)c(F)c2)nn(CC2CC2)c1=O", "note": "[compound 3, reference compound]", "values": [
      {"measurement": "Dissolution in amount of added water", "setting": "[3]; 100 mL purified water added", "value": "(insoluble)"},
      {"measurement": "Solubility (%)", "setting": "[3]", "value": "<0.001", "unit": "%"},
      {"measurement": "Oral absorption (plasma level by HPLC)", "setting": "[4]", "value": "no substantial absorption"}
    ]}
  ]
}
